Source: patent publication US8999942B2, “Polyol modified aminoglycoside-lipid conjugates” (University of Manitoba, priority 2010, dated 2015)

How the values were obtained:
[1] = test system: P. aeruginosa (Gent-R) CAN-ICU 62308; assay: MIC, broth macrodilution (CLSI), P. aeruginosa CAN-ICU 62308; assay type: cell-based, Pseudomonas aeruginosa
Protocol: (§1) All compounds were tested against American Type Culture Collection (ATCC) reference strains as well as clinical isolates from the Canadian Intensive Care Unit (CAN-ICU) study (Zhanel, et al., 2008). […] Antibacterial activity against Gram-positive and Gram-negative microorganisms was performed via broth macrodilution tests using CLSI methodology (Clinical and Laboratory Standards Institute, 2006). The minimum inhibitory concentration (MIC) in μg/mL of the aminoglycoside-derived amphiphilic polycarbamates and polyethers were determined using established methods (Clinical and Laboratory Standards Institute, 2006) and are shown in Tables 1 and 2, respectively.

[2] = test system: S. epidermidis ATCC 14990; assay: MIC, broth macrodilution (CLSI), S. epidermidis; assay type: cell-based, Staphylococcus epidermidis; conditions: footnote ATCC 1490
Protocol: as §1

[3] = test system: Pseudomonas aeruginosa ATCC 27853; assay: MIC, broth macrodilution (CLSI), P. aeruginosa ATCC 27853; assay type: cell-based
Protocol: as §1

[4] = test system: E. coli (Gentamicin-resistant) CAN-ICU 61714; assay: MIC, broth macrodilution (CLSI), gentamicin-resistant E. coli; assay type: cell-based; conditions: footnote ATCC 6174 (gentamicin resistant)
Protocol: as §1

S. aureus ATCC 29213 = assay: MIC, broth macrodilution (CLSI), S. aureus ATCC 29213; assay type: cell-based, Staphylococcus aureus
Protocol: as §1

[5] = test system: E. coli (Amikacin MIC 32) CAN-ICU 63074; assay: MIC, broth macrodilution (CLSI), E. coli CAN-ICU 63074; assay type: cell-based
Protocol: as §1

[6] = test system: Streptococcus pneumoniae ATCC 49619; assay: MIC, broth macrodilution (CLSI), S. pneumoniae ATCC 49619; assay type: cell-based
Protocol: as §1

[7] = test system: Stenotrophomonas maltophilia (CAN-ICU 62585); assay: MIC, broth macrodilution (CLSI), S. maltophilia; assay type: cell-based; conditions: S. maltophilia, footnote CAN-ICU 62584
Protocol: as §1

S. pneumoniae ATCC 13883 = assay: MIC, broth macrodilution (CLSI), S. pneumoniae ATCC 13883; assay type: cell-based
Protocol: as §1

[8] = test system: Gram-positive and Gram-negative strains tested; assay: Antibacterial activity, strains tested; assay type: cell-based
Protocol: as §1

[9] = test system: methicillin-resistant Staphylococcus aureus (MRSA) ATCC 33592; assay: MIC, broth macrodilution (CLSI), MRSA ATCC 33592; assay type: cell-based; conditions: MRSA, methicillin-resistant S. aureus ATCC 33592
Protocol: as §1

E. coli ATCC 25922 = assay: MIC, broth macrodilution (CLSI), E. coli ATCC 25922; assay type: cell-based
Protocol: as §1

[10] = test system: methicillin-resistant Staphylococcus epidermidis (MRSE) CAN-ICU 61589; assay: MIC, broth macrodilution (CLSI), MRSE; assay type: cell-based; conditions: methicillin-resistant S. epidermidis, footnote (ATCC 14990)
Protocol: as §1

[11] = test system: Acinetobacter baumanni (CAN-ICU 63169); assay: MIC, broth macrodilution (CLSI), A. baumannii; assay type: cell-based; conditions: A. baumannii CAN-ICU 63169
Protocol: as §1

COCC1OC(OC2C(OC)C(N)CC(N)C2OC2OC(CN)C(OC)C(OC)C2N)C(OC)C1OC1OC(CN)C(OC)C(OC)C1N.O=C(O)C(F)(F)F.O=C(O)C(F)(F)F.O=C(O)C(F)(F)F.O=C(O)C(F)(F)F.O=C(O)C(F)(F)F.O=C(O)C(F)(F)F (stereo not drawn) [Compound 14]
Minimal Inhibitory Concentration (MIC) [1]: >256 µg/mL
Minimal Inhibitory Concentration (MIC) [2]: 256 µg/mL
Minimal Inhibitory Concentration (MIC) [3]: >256 µg/mL
Minimal Inhibitory Concentration (MIC) [4]: >256 µg/mL
Minimal Inhibitory Concentration (MIC) (S. aureus ATCC 29213): >256 µg/mL
Minimal Inhibitory Concentration (MIC) [5]: >256 µg/mL
Minimal Inhibitory Concentration (MIC) [6]: >256 µg/mL
Minimal Inhibitory Concentration (MIC) [7]: >256 µg/mL
Minimal Inhibitory Concentration (MIC) (S. pneumoniae ATCC 13883): >256 µg/mL
antibacterial activity (in words) [8]: inactivity
Minimal Inhibitory Concentration (MIC) [9]: >256 µg/mL
Minimal Inhibitory Concentration (MIC) (E. coli ATCC 25922): >256 µg/mL
Minimal Inhibitory Concentration (MIC) [10]: >256 µg/mL
Minimal Inhibitory Concentration (MIC) [11]: >256 µg/mL

NCC1OC(OC2C(N)CC(N)C(OC3OC(COCc4ccccc4)C(OCc4ccccc4)C(N)C3OCc3ccccc3)C2OCc2ccccc2)C(OCc2ccccc2)C(OCc2ccccc2)C1OCc1ccccc1.O=C(O)C(F)(F)F.O=C(O)C(F)(F)F.O=C(O)C(F)(F)F.O=C(O)C(F)(F)F (stereo not drawn) [Compound 15]
Minimal Inhibitory Concentration (MIC) [1]: >64 µg/mL
Minimal Inhibitory Concentration (MIC) [2]: 4 µg/mL
Minimal Inhibitory Concentration (MIC) [3]: >64 µg/mL
Minimal Inhibitory Concentration (MIC) [4]: 32 µg/mL
Minimal Inhibitory Concentration (MIC) (S. aureus ATCC 29213): 8 µg/mL
Minimal Inhibitory Concentration (MIC) [5]: 16 µg/mL
Minimal Inhibitory Concentration (MIC) [6]: 32 µg/mL
Minimal Inhibitory Concentration (MIC) [7]: >64 µg/mL
Minimal Inhibitory Concentration (MIC) (S. pneumoniae ATCC 13883): >64 µg/mL
Minimal Inhibitory Concentration (MIC) [9]: 8 µg/mL
Minimal Inhibitory Concentration (MIC) (E. coli ATCC 25922): 32 µg/mL
Minimal Inhibitory Concentration (MIC) [10]: 8 µg/mL
Minimal Inhibitory Concentration (MIC) [11]: >64 µg/mL

NCC1OC(OC2C(N)CC(N)C(OC3OC(COCc4ccc(Cl)cc4)C(OCc4ccc(Cl)cc4)C(N)C3OCc3ccc(Cl)cc3)C2OCc2ccc(Cl)cc2)C(OCc2ccc(Cl)cc2)C(OCc2ccc(Cl)cc2)C1OCc1ccc(Cl)cc1.O=C(O)C(F)(F)F.O=C(O)C(F)(F)F.O=C(O)C(F)(F)F.O=C(O)C(F)(F)F (stereo not drawn) [Compound 16]
Minimal Inhibitory Concentration (MIC) [1]: >128 µg/mL
Minimal Inhibitory Concentration (MIC) [2]: 32 µg/mL
Minimal Inhibitory Concentration (MIC) [3]: >128 µg/mL
Minimal Inhibitory Concentration (MIC) [4]: 128 µg/mL
Minimal Inhibitory Concentration (MIC) (S. aureus ATCC 29213): 32 µg/mL
Minimal Inhibitory Concentration (MIC) [5]: 64 µg/mL
Minimal Inhibitory Concentration (MIC) [6]: 64 µg/mL
Minimal Inhibitory Concentration (MIC) [7]: >128 µg/mL
Minimal Inhibitory Concentration (MIC) (S. pneumoniae ATCC 13883): >128 µg/mL
Minimal Inhibitory Concentration (MIC) [9]: 32 µg/mL
Minimal Inhibitory Concentration (MIC) (E. coli ATCC 25922): 128 µg/mL
Minimal Inhibitory Concentration (MIC) [10]: 16 µg/mL
Minimal Inhibitory Concentration (MIC) [11]: >128 µg/mL

COCC1OC(OC2C(N)CC(N)C(OC3OC(CN)C(OC)C(OC)C3OC)C2OC)C(OC)C(N)C1OC.O=C(O)C(F)(F)F.O=C(O)C(F)(F)F.O=C(O)C(F)(F)F.O=C(O)C(F)(F)F (stereo not drawn) [Compound 17]
Minimal Inhibitory Concentration (MIC) [1]: >256 µg/mL
Minimal Inhibitory Concentration (MIC) [2]: 256 µg/mL
Minimal Inhibitory Concentration (MIC) [3]: >256 µg/mL
Minimal Inhibitory Concentration (MIC) [4]: >256 µg/mL
Minimal Inhibitory Concentration (MIC) (S. aureus ATCC 29213): >256 µg/mL
Minimal Inhibitory Concentration (MIC) [5]: >256 µg/mL
Minimal Inhibitory Concentration (MIC) [6]: >256 µg/mL
Minimal Inhibitory Concentration (MIC) [7]: >256 µg/mL
Minimal Inhibitory Concentration (MIC) (S. pneumoniae ATCC 13883): >256 µg/mL
antibacterial activity (in words) [8]: inactivity
Minimal Inhibitory Concentration (MIC) [9]: >256 µg/mL
Minimal Inhibitory Concentration (MIC) (E. coli ATCC 25922): >256 µg/mL
Minimal Inhibitory Concentration (MIC) [10]: >256 µg/mL
Minimal Inhibitory Concentration (MIC) [11]: >256 µg/mL

NCCC(OCc1ccccc1)C(=O)NC1CC(N)C(OC2OC(CN)C(OCc3ccccc3)C(OCc3ccccc3)C2OCc2ccccc2)C(OCc2ccccc2)C1OC1OC(COCc2ccccc2)C(OCc2ccccc2)C(N)C1OCc1ccccc1.O=C(O)C(F)(F)F.O=C(O)C(F)(F)F.O=C(O)C(F)(F)F.O=C(O)C(F)(F)F (stereo not drawn) [Compound 18]
Minimal Inhibitory Concentration (MIC) [1]: 64 µg/mL
Minimal Inhibitory Concentration (MIC) [2]: 1 µg/mL
Minimal Inhibitory Concentration (MIC) [3]: 128 µg/mL
Minimal Inhibitory Concentration (MIC) [4]: 16 µg/mL
Minimal Inhibitory Concentration (MIC) (S. aureus ATCC 29213): 4 µg/mL
Minimal Inhibitory Concentration (MIC) [5]: 16 µg/mL
Minimal Inhibitory Concentration (MIC) [6]: 32 µg/mL
Minimal Inhibitory Concentration (MIC) [7]: 32 µg/mL
Minimal Inhibitory Concentration (MIC) (S. pneumoniae ATCC 13883): 16 µg/mL
Minimal Inhibitory Concentration (MIC) [9]: 4 µg/mL
Minimal Inhibitory Concentration (MIC) (E. coli ATCC 25922): 16 µg/mL
Minimal Inhibitory Concentration (MIC) [10]: 1 µg/mL
Minimal Inhibitory Concentration (MIC) [11]: 32 µg/mL

NCCC(OCc1ccc(Cl)cc1)C(=O)NC1CC(N)C(OC2OC(CN)C(OCc3ccc(Cl)cc3)C(OCc3ccc(Cl)cc3)C2OCc2ccc(Cl)cc2)C(OCc2ccc(Cl)cc2)C1OC1OC(COCc2ccc(Cl)cc2)C(OCc2ccc(Cl)cc2)C(N)C1OCc1ccc(Cl)cc1.O=C(O)C(F)(F)F.O=C(O)C(F)(F)F.O=C(O)C(F)(F)F.O=C(O)C(F)(F)F (stereo not drawn) [Compound 19]
Minimal Inhibitory Concentration (MIC) [1]: >256 µg/mL
Minimal Inhibitory Concentration (MIC) [2]: 128 µg/mL
Minimal Inhibitory Concentration (MIC) [3]: >256 µg/mL
Minimal Inhibitory Concentration (MIC) [4]: >256 µg/mL
Minimal Inhibitory Concentration (MIC) (S. aureus ATCC 29213): 128 µg/mL
Minimal Inhibitory Concentration (MIC) [5]: 256 µg/mL
Minimal Inhibitory Concentration (MIC) [6]: 128 µg/mL
Minimal Inhibitory Concentration (MIC) [7]: >256 µg/mL
Minimal Inhibitory Concentration (MIC) (S. pneumoniae ATCC 13883): >256 µg/mL
Minimal Inhibitory Concentration (MIC) [9]: 128 µg/mL
Minimal Inhibitory Concentration (MIC) (E. coli ATCC 25922): >256 µg/mL
Minimal Inhibitory Concentration (MIC) [10]: 64 µg/mL
Minimal Inhibitory Concentration (MIC) [11]: >256 µg/mL

COCC1OC(OC2C(NC(=O)C(CCN)OC)CC(N)C(OC3OC(CN)C(OC)C(OC)C3OC)C2OC)C(OC)C(N)C1OC.O=C(O)C(F)(F)F.O=C(O)C(F)(F)F.O=C(O)C(F)(F)F.O=C(O)C(F)(F)F (stereo not drawn) [Compound 20]
Minimal Inhibitory Concentration (MIC) [1]: >256 µg/mL
Minimal Inhibitory Concentration (MIC) [2]: >256 µg/mL
Minimal Inhibitory Concentration (MIC) [3]: >256 µg/mL
Minimal Inhibitory Concentration (MIC) [4]: >256 µg/mL
Minimal Inhibitory Concentration (MIC) (S. aureus ATCC 29213): >256 µg/mL
Minimal Inhibitory Concentration (MIC) [5]: >256 µg/mL
Minimal Inhibitory Concentration (MIC) [6]: >256 µg/mL
Minimal Inhibitory Concentration (MIC) [7]: >256 µg/mL
Minimal Inhibitory Concentration (MIC) (S. pneumoniae ATCC 13883): >256 µg/mL
antibacterial activity (in words) [8]: inactivity
Minimal Inhibitory Concentration (MIC) [9]: >256 µg/mL
Minimal Inhibitory Concentration (MIC) (E. coli ATCC 25922): >256 µg/mL
Minimal Inhibitory Concentration (MIC) [10]: >256 µg/mL
Minimal Inhibitory Concentration (MIC) [11]: >256 µg/mL

NC[C@H]1O[C@H](O[C@H]2[C@H](O)[C@@H](O[C@H]3O[C@H](CO)[C@@H](O)[C@H](N)[C@H]3O)[C@H](N)C[C@@H]2N)[C@H](O)[C@@H](O)[C@@H]1O [Kanamycin A, reference compound]
Minimal Inhibitory Concentration (MIC) [1]: >512 µg/mL
Minimal Inhibitory Concentration (MIC) [2]: 2 µg/mL
Minimal Inhibitory Concentration (MIC) [3]: >512 µg/mL
Minimal Inhibitory Concentration (MIC) [4]: 16 µg/mL
Minimal Inhibitory Concentration (MIC) (S. aureus ATCC 29213): 4 µg/mL
Minimal Inhibitory Concentration (MIC) [5]: 32 µg/mL
Minimal Inhibitory Concentration (MIC) [6]: 8 µg/mL
Minimal Inhibitory Concentration (MIC) [7]: >512 µg/mL
Minimal Inhibitory Concentration (MIC) (S. pneumoniae ATCC 13883): 1 µg/mL
Minimal Inhibitory Concentration (MIC) [9]: >512 µg/mL
Minimal Inhibitory Concentration (MIC) (E. coli ATCC 25922): 8 µg/mL
Minimal Inhibitory Concentration (MIC) [10]: 128 µg/mL
Minimal Inhibitory Concentration (MIC) [11]: 32 µg/mL

Gentamicin [reference compound]
Minimal Inhibitory Concentration (MIC) [1]: 128 µg/mL
Minimal Inhibitory Concentration (MIC) [2]: 0.25 µg/mL
Minimal Inhibitory Concentration (MIC) [3]: 8 µg/mL
Minimal Inhibitory Concentration (MIC) [4]: 128 µg/mL
Minimal Inhibitory Concentration (MIC) (S. aureus ATCC 29213): 1 µg/mL
Minimal Inhibitory Concentration (MIC) [5]: 8 µg/mL
Minimal Inhibitory Concentration (MIC) [6]: 4 µg/mL
Minimal Inhibitory Concentration (MIC) [7]: >512 µg/mL
Minimal Inhibitory Concentration (MIC) (S. pneumoniae ATCC 13883): 0.25 µg/mL
Minimal Inhibitory Concentration (MIC) [9]: 2 µg/mL
Minimal Inhibitory Concentration (MIC) (E. coli ATCC 25922): 1 µg/mL
Minimal Inhibitory Concentration (MIC) [10]: 32 µg/mL
Minimal Inhibitory Concentration (MIC) [11]: 128 µg/mL
